Laboratory results published in patent publication US8722849B2, “Polypeptides” (Novo Nordisk A/S, priority 2011, dated 2014).
pEC50: −log10 of the molar value. In brackets after ≈: the same amount, converted by molar mass. Where two headings read alike, the source gives them in different places. One block for each compound: values may come before it. Starred links: 1 amine or outer side, 2 acyl side, 3 side chain; linkers in the order of their positions; H or OH if unused. Positions of bridges follow the written chain, without caps; N, C: chain ends. Non-standard residues stand in square brackets, D forms with d. Residues, ends and D or L forms follow the SMILES beside them. *: point of attachment. C20 diacid = O=C(O)CCCCCCCCCCCCCCCCCCC(=O)*; γGlu = O=C(O)[C@H](CCC(=O)[*:2])N[*:1]; AEEA = NCCOCCOCC(=O)O

Key:
[1] = biological target: T1, human amylin receptor (amylin 3(a) receptor: human calcitonin receptor + RAMP-3) (Homo sapiens, UniProt O60896+P30988); assay: Assay (II)a functional CRE-luciferase assay, human amylin receptor; assay type: cell-based
T1 construct: expressed in transfected cells; host or cells: BHK570
T1 sequence (P30988 25-474): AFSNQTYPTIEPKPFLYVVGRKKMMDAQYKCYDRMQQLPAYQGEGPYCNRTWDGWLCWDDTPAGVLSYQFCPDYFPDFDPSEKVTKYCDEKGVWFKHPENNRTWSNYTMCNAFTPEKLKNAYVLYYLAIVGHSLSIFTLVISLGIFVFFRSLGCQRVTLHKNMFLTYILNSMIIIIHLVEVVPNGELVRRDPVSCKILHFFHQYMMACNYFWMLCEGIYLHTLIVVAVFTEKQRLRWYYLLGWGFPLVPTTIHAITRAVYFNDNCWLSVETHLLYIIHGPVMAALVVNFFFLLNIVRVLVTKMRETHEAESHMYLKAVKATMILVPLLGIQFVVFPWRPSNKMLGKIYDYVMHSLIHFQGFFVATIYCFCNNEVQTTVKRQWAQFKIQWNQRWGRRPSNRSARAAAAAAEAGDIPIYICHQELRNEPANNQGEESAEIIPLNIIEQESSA
T1 sequence (O60896 24-148 partner): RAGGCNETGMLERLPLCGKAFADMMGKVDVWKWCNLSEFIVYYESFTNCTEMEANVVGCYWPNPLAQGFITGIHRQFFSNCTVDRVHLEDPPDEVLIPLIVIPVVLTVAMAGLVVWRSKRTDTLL

[2] = biological target: T2, human calcitonin receptor (Homo sapiens, UniProt P30988); assay: Assay (II)a functional CRE-luciferase assay, human calcitonin receptor; assay type: cell-based
T2 construct: expressed in transfected cells; host or cells: BHK570
T2 sequence (P30988 25-474): T1 sequence (P30988 25-474)

[3] = biological target: T3, rat amylin 3(a) receptor (rat calcitonin(a) receptor + rat RAMP3) (Rattus norvegicus, UniProt P32214+Q9JJ73); assay: Assay (II)b functional cAMP FlashPlate assay, rat amylin receptor; assay type: cell-based; conditions: Table 11
T3 construct: expressed in transfected cells; host or cells: BHK tk'ts 13
T3 sequence (P32214 25-479 isoform P32214-2 limits assumed): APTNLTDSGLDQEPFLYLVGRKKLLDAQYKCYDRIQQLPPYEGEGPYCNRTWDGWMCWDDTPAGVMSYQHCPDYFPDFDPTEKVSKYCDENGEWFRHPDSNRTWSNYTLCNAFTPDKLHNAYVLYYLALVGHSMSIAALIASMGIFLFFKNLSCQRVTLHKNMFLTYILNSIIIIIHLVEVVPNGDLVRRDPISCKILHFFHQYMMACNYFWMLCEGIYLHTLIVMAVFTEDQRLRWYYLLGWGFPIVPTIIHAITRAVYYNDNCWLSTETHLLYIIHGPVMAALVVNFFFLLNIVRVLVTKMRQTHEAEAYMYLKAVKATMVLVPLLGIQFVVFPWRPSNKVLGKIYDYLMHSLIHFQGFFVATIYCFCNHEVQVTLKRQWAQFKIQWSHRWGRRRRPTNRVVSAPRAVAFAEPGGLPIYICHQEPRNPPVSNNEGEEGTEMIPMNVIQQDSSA
T3 sequence (Q9JJ73 23-147 partner): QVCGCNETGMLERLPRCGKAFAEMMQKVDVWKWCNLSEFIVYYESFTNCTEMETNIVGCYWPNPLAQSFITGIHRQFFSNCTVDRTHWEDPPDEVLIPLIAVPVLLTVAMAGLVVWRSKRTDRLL
Source text: (§1) Assay (II)b—Rat Calcitonin and Rat Amylin Receptor Assays
(§2) Activation of calcitonin and amylin (coexpression of calcitonin receptor and receptor activity modifying proteins (RAMP)) receptors lead to increased intracellular concentrations of cAMP. In order to quantify the cAMP levels in transiently transfected cells the Adenylyl Cyclase Activation FlashPlate® Assay from […] was used. The basic principle of the FlashPlate® Assay is a competition between radioactive and non-radioactive cAMP generated by the cells for a fixed number of binding sites.
(§3) Construction of rat calcitonin(a)—and rat amylin 3(a)-receptor cells.
(§4) BHK tk'ts 13 cells were transiently transfected with either rat calcitonin (a) receptor or amylin 3 (a) receptor (rat calcitonin(a) receptor+ rat RAMP3) using FuGENE® 6 (ROCHE), according to the manufacturers recommendations.
(§5) 24 hours after transient transfection the cells (rat calcitonin(a)—or rat amylin 3(a)—receptor cells) were added (100.000 cells/well) to the 96 well FlashPlates® with samples or standard in FlashPlate stimulation buffer with IBMX and incubated for 30 min. Detection mix was created according to manufacturers protocol and scintillation measured after 3 h of incubation on TopCounter™ (Packard).

[4] = biological target: T4, rat calcitonin (a) receptor (Rattus norvegicus, UniProt P32214); assay: Assay (II)b functional cAMP FlashPlate assay, rat calcitonin receptor; assay type: cell-based; conditions: Table 11; read-out: CTa receptor rat EC50
T4 construct: expressed in transfected cells; host or cells: BHK tk'ts 13
T4 sequence (P32214 25-479 isoform P32214-2 limits assumed): T3 sequence (P32214 25-479 isoform P32214-2 limits assumed)
Source text: as §1, §2, §3, §4, §5

[5] = Assay (IV) determination of solubility; assay type: physicochemical
Outline: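 Solubility is measured across pH 3.0–8.0 by mixing a ~500 nmol/ml aqueous polypeptide stock 1:1 with 100 mM glycylglycine or bistrispropane buffers. Samples stand 18 hours at room temperature, then are centrifuged and the soluble concentration is determined by HPLC.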

[6] = Table 2, BHK amylin 3(a)-receptor/CRE-luc cells
[7] = Table 7, human calcitonin (CTa) receptor

pEC50 [1, 6]: 9.83
pEC50 ([1]; Table 3, BHK amylin 3(a)-receptor/CRE-luc cells): 9.83
pEC50 ([1]; Table 4): 9.83
pEC50 ([1]; Table 5): 9.83
pEC50 ([1]; Table 6, human amylin receptor): 9.83
pEC50 ([1]; Table 7, human amylin receptor): 9.83
pEC50 ([1]; Table 8): 9.83
pEC50 ([1]; Table 9): 9.83
pEC50 ([1]; Table 11): 9.83
pEC50 [2, 7]: 8.95
pEC50 ([2]; Table 11, read-out: CTa receptor human EC50): 8.95
pEC50 [3]: 9.63
pEC50 [4]: 8.35
solubility ([5]; pH 3, pH 3.0, read-out: Solubility pH 3.0): > 200 µM
solubility ([5]; pH 4, pH 4.0, 18 hours at room temperature, Table 2, read-out: Solubility pH 4.0): > 200 µM
solubility ([5]; pH 4, pH 4.0, read-out: Solubility pH 4.0): > 200 µM
solubility ([5]; pH 5, pH 5.0, read-out: Solubility pH 5.0): > 200 µM
solubility ([5]; pH 6, pH 6.0, read-out: Solubility pH 6.0): > 200 µM
solubility ([5]; pH 6.5, pH 6.5, read-out: Solubility pH 6.5): > 200 µM
solubility ([5]; pH 7, pH 7.0, 18 hours at room temperature, Table 3, read-out: Solubility pH 7.0): > 200 µM
solubility ([5]; pH 7, pH 7.0, Table 8, read-out: Solubility pH 7.0): > 200 µM
solubility ([5]; pH 7, pH 7.0, Table 9, read-out: Solubility pH 7.0): > 200 µM
solubility ([5]; pH 7, pH 7.0, read-out: Solubility pH 7.0): > 200 µM
solubility ([5]; pH 7.5, pH 7.5, Table 9, read-out: Solubility pH 7.5): > 200 µM
solubility ([5]; pH 7.5, pH 7.5, read-out: Solubility pH 7.5): > 200 µM
solubility ([5]; pH 8, pH 8.0, read-out: Solubility pH 8.0): > 200 µM
SMILES: CC[C@H](C)[C@H](NC(=O)[C@@H]1CCCN1C(=O)CNC(=O)[C@H](Cc1ccccc1)NC(=O)[C@H](CC(N)=O)NC(=O)[C@H](C)NC(=O)[C@H](CO)NC(=O)[C@H](CO)NC(=O)[C@H](CCCNC(=N)N)NC(=O)[C@H](Cc1cnc[nH]1)NC(=O)[C@H](CC(C)C)NC(=O)[C@H](Cc1ccccc1)NC(=O)[C@H](CCC(=O)O)NC(=O)[C@H](C)NC(=O)[C@H](CC(C)C)NC(=O)[C@H](CCCNC(=N)N)NC(=O)[C@H](CCC(N)=O)NC(=O)[C@@H](NC(=O)[C@H](C)NC(=O)[C@@H]1CSSC[C@H](NC(=O)[C@H](CCCCN)NC(=O)[C@@H](CCCNC(=N)N)NC(=O)[C@@H](CCCNC(=N)N)NC(=O)COCCOCCNC(=O)COCCOCCNC(=O)CC[C@H](NC(=O)CCCCCCCCCCCCCCCCCCC(=O)O)C(=O)O)C(=O)N[C@@H](CC(N)=O)C(=O)N[C@@H]([C@@H](C)O)C(=O)N[C@@H](C)C(=O)N[C@@H]([C@@H](C)O)C(=O)N1)[C@@H](C)O)C(=O)N[C@@H](CC(C)C)C(=O)N1CCC[C@H]1C(=O)N1CCC[C@H]1C(=O)N[C@H](C(=O)N[C@@H](CC(N)=O)C(=O)N[C@H](C(=O)NCC(=O)N[C@@H](CO)C(=O)N[C@@H](CO)C(=O)N[C@H](C(=O)N[C@@H](Cc1ccc(O)cc1)C(N)=O)[C@@H](C)O)C(C)C)[C@@H](C)O [Example 38, N-alpha-[2-(2-{2-[2-(2-{2-[(S)-4-Carboxy-4-(19-carboxyheptadecanoylamino)butyrylamino]ethoxy}ethoxy)acetylamino]ethoxy}ethoxy)acetyl]-D-Arg-D-Arg-[Glu14,His17,Arg18,Ala21,Ser35]-pramlintide] ({C20 diacid-γGlu-AEEA-AEEA}-[dR][dR]KCNTATCATQRLAEFLHRSSANFGPILPPTNVGSSTY-NH2; disulfide 4-9)

pEC50 [1, 6]: 9.67
pEC50 [2, 7]: 9.68
pEC50 [3]: 9.48
pEC50 [4]: 8.76
solubility at 18 h ([5]; bistrispropane buffer, pH 6, pH 6.0, read-out: Solubility pH 6.0): > 200 µM
solubility at 18 h ([5]; bistrispropane buffer, pH 6.5, pH 6.5, read-out: Solubility pH 6.5): > 200 µM
solubility at 18 h ([5]; bistrispropane buffer, pH 7, pH 7.0, 18 hours at room temperature, Table 3, read-out: Solubility pH 7.0): > 200 µM
solubility at 18 h ([5]; bistrispropane buffer, pH 7, pH 7.0, Table 8, read-out: Solubility pH 7.0): > 200 µM
solubility at 18 h ([5]; bistrispropane buffer, pH 7, pH 7.0, Table 9, read-out: Solubility pH 7.0): > 200 µM
solubility at 18 h ([5]; bistrispropane buffer, pH 7, pH 7.0, read-out: Solubility pH 7.0): > 200 µM
solubility at 18 h ([5]; bistrispropane buffer, pH 7.5, pH 7.5, Table 9, read-out: Solubility pH 7.5): > 200 µM
solubility at 18 h ([5]; bistrispropane buffer, pH 7.5, pH 7.5, read-out: Solubility pH 7.5): > 200 µM
solubility at 18 h ([5]; bistrispropane buffer, pH 8, pH 8.0, read-out: Solubility pH 8.0): > 200 µM
solubility at 18 h ([5]; glycylglycine buffer, pH 3, pH 3.0, read-out: Solubility pH 3.0): > 200 µM
solubility at 18 h ([5]; glycylglycine buffer, pH 4, pH 4.0, 18 hours at room temperature, Table 2, read-out: Solubility pH 4.0): 116 µM (≈ 514 µg/mL)
solubility at 18 h ([5]; glycylglycine buffer, pH 4, pH 4.0, read-out: Solubility pH 4.0): 116 µM (≈ 514 µg/mL)
solubility at 18 h ([5]; pH 5.0, read-out: Solubility pH 5.0): 5 µM (≈ 22.2 µg/mL)
SMILES: CC[C@H](C)[C@H](NC(=O)[C@@H]1CCCN1C(=O)CNC(=O)[C@H](Cc1ccccc1)NC(=O)[C@H](CO)NC(=O)[C@H](CO)NC(=O)[C@H](CO)NC(=O)[C@H](CO)NC(=O)[C@H](CCCNC(=N)N)NC(=O)[C@H](Cc1cnc[nH]1)NC(=O)[C@H](CC(C)C)NC(=O)[C@H](Cc1ccccc1)NC(=O)[C@H](CCC(=O)O)NC(=O)[C@H](C)NC(=O)[C@H](CC(C)C)NC(=O)[C@H](CCCNC(=N)N)NC(=O)[C@H](CCC(N)=O)NC(=O)[C@@H](NC(=O)[C@H](C)NC(=O)[C@@H]1CSSC[C@H](NC(=O)[C@H](Cc2cnc[nH]2)NC(=O)CC[C@H](NC(=O)CCCCCCCCCCCCCCCCCCC(=O)O)C(=O)O)C(=O)N[C@@H](CC(N)=O)C(=O)N[C@@H]([C@@H](C)O)C(=O)N[C@@H](C)C(=O)N[C@@H]([C@@H](C)O)C(=O)N1)[C@@H](C)O)C(=O)N[C@@H](CC(C)C)C(=O)N1CCC[C@H]1C(=O)N1CCC[C@H]1C(=O)N[C@H](C(=O)N[C@@H](CC(=O)O)C(=O)N[C@H](C(=O)NCC(=O)N[C@@H](CO)C(=O)N[C@@H](CC(=O)O)C(=O)N[C@H](C(=O)N[C@@H](Cc1ccc(O)cc1)C(N)=O)[C@@H](C)O)C(C)C)[C@@H](C)O [Example 9, N-alpha-[(S)-4-Carboxy-4-(19-carboxynonadecanoylamino)butyryl]-[His1,Glu14,His17,Arg18,Ser21,Ser22,Asp31,Asp35]-pramlintide] ({C20 diacid-γGlu}-HCNTATCATQRLAEFLHRSSSSFGPILPPTDVGSDTY-NH2; disulfide 2-7)
